Measurements reported in article PMC9005681, “Use of AD Informer Set compounds to explore validity of novel targets in Alzheimer's disease pathology” (Alzheimer's & Dementia : Translational Research & Clinical …, 2022).
Several values for one entry are separate records, joined by “and”; a condition that tells them apart may be missing. Identical values can stand only once.

How the values were obtained:
Assay in all cases: PDSP GPCR panel primary binding assays at 10 μM
[1] = molecular target: T1, cloned human or rodent CNS receptors, channels, and transporters (PDSP panel) (Homo sapiens, UniProt P08912); conditions: M5, primary assay
T1 construct: expressed in transfected cells
T1 sequence (P08912 1-532): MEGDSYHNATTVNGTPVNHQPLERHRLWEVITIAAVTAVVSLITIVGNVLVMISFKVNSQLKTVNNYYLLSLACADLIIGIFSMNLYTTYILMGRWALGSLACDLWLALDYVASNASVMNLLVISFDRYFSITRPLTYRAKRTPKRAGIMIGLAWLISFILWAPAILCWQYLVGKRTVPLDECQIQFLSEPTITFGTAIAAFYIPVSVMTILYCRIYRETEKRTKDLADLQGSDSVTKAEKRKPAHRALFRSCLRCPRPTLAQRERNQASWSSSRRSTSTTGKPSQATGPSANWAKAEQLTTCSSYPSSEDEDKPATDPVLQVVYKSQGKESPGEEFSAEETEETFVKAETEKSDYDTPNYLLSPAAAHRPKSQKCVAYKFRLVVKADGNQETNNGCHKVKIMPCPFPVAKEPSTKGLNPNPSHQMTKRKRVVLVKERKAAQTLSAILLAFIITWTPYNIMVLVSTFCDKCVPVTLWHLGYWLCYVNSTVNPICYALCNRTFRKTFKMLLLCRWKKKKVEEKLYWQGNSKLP
In short: (§1)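 Competition binding with radiolabeled standard ligands, single 10 μM concentration, four replicates. Targets showing over 50% displacement were followed up with 11-point titrations in triplicate.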

[2] = molecular target: T2, cloned human or rodent CNS receptors, channels, and transporters (PDSP panel) (Homo sapiens, UniProt P14416); conditions: D2, primary assay
T2 construct: expressed in transfected cells
T2 sequence (P14416 whole entry): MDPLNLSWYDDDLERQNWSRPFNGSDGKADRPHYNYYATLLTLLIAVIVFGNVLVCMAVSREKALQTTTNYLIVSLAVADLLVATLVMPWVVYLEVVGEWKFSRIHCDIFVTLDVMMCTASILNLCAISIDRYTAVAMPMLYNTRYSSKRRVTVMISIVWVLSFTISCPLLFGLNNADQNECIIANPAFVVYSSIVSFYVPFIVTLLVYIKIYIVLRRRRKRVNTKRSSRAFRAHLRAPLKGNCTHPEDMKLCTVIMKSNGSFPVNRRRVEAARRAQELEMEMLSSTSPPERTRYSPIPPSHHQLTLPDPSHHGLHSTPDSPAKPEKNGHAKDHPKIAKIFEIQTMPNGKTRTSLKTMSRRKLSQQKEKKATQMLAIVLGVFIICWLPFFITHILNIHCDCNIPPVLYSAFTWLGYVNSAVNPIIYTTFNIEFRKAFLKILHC
In short: as §1

[3] = molecular target: T3, cloned human or rodent CNS receptors, channels, and transporters (PDSP panel) (Homo sapiens, UniProt P21728); conditions: D1, primary assay
T3 construct: expressed in transfected cells
T3 sequence (P21728 whole entry): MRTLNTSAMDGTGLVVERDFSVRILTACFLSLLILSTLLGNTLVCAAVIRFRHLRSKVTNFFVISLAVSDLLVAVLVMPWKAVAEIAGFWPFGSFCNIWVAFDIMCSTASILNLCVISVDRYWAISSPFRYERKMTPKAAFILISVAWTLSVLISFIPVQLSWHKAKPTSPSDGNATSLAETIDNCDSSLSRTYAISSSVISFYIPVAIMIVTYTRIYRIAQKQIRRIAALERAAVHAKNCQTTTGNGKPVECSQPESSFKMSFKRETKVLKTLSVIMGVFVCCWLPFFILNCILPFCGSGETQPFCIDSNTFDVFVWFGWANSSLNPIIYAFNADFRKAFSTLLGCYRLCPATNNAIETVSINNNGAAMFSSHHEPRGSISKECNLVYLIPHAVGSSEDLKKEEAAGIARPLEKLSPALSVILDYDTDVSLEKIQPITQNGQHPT
In short: as §1

[4] = molecular target: T4, cloned human or rodent CNS receptors, channels, and transporters (PDSP panel) (Homo sapiens, UniProt P23975); conditions: NET, primary assay
T4 construct: expressed in transfected cells
T4 sequence (P23975 whole entry): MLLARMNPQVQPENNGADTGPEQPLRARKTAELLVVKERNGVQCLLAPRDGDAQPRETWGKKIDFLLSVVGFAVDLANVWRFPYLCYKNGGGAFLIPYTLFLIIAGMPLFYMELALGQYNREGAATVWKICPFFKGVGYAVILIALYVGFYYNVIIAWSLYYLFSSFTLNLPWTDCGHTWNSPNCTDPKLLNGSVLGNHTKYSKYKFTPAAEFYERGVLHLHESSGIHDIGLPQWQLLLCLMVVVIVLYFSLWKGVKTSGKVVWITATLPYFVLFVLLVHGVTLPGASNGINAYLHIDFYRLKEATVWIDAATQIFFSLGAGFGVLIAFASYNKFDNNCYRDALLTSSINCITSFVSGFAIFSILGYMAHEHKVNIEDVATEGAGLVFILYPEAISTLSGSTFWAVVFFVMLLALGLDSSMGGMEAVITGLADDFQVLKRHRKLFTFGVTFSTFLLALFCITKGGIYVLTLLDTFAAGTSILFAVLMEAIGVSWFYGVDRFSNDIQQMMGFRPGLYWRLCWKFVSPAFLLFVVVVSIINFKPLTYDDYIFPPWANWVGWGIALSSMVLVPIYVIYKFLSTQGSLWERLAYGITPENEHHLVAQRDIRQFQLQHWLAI
In short: as §1

[5] = molecular target: T5, cloned human or rodent CNS receptors, channels, and transporters (PDSP panel) (Homo sapiens, UniProt P28335); conditions: 5-HT2C, primary assay
T5 construct: expressed in transfected cells
T5 sequence (P28335 33-458): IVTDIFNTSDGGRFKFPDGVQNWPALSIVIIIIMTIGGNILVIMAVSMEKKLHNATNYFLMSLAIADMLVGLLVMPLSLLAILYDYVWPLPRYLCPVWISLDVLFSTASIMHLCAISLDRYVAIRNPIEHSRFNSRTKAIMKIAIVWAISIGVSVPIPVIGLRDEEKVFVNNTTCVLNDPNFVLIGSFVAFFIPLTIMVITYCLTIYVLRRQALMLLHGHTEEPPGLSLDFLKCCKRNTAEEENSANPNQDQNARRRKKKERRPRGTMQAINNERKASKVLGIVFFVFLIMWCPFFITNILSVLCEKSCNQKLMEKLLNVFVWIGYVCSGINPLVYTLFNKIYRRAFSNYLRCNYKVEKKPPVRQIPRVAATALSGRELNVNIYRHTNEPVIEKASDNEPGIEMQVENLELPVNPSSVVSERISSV
In short: as §1

[6] = molecular target: T6, cloned human or rodent CNS receptors, channels, and transporters (PDSP panel) (Homo sapiens, UniProt P28566); conditions: 5-HT1E, primary assay
T6 construct: expressed in transfected cells
T6 sequence (P28566 whole entry): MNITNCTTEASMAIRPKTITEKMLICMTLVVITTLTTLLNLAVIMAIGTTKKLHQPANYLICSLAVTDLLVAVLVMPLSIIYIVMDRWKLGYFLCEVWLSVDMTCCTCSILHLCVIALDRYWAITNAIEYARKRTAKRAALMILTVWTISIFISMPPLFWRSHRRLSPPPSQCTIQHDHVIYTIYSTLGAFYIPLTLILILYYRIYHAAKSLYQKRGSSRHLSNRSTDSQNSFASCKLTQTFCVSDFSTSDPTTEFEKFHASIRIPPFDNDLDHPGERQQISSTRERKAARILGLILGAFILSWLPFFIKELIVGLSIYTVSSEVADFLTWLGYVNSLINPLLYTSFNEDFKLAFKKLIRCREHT
In short: as §1

[7] = molecular target: T7, cloned human or rodent CNS receptors, channels, and transporters (PDSP panel) (Homo sapiens, UniProt P35462); conditions: D3, primary assay
T7 construct: expressed in transfected cells
T7 sequence (P35462 whole entry): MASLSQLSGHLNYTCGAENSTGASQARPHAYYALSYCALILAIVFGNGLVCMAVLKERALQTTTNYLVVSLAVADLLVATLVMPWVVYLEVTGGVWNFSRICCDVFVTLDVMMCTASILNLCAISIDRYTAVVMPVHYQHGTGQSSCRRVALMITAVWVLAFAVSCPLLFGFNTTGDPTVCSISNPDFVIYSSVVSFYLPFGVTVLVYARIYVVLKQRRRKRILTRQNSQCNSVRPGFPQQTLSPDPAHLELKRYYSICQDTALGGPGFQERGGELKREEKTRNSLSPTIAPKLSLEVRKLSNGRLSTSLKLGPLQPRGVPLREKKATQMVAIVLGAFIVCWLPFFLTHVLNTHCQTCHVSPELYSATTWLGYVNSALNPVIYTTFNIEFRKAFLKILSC
In short: as §1

[8] = molecular target: T8, cloned human or rodent CNS receptors, channels, and transporters (PDSP panel) (Homo sapiens, UniProt P41145); conditions: KOR, primary assay
T8 construct: expressed in transfected cells
T8 sequence (P41145 whole entry): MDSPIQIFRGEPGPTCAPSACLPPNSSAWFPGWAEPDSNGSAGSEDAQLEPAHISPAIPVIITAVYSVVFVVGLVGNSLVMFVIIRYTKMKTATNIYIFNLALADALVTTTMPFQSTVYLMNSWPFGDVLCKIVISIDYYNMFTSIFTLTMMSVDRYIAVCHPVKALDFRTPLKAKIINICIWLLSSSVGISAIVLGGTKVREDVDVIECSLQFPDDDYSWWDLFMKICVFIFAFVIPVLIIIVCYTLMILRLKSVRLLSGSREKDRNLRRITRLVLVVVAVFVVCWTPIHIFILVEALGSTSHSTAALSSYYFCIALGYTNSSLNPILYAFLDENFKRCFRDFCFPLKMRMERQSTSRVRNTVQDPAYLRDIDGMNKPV
In short: as §1

[9] = molecular target: T9, cloned human or rodent CNS receptors, channels, and transporters (PDSP panel) (Homo sapiens, UniProt P41595); conditions: 5-HT2B, primary assay
T9 construct: expressed in transfected cells
T9 sequence (P41595 whole entry): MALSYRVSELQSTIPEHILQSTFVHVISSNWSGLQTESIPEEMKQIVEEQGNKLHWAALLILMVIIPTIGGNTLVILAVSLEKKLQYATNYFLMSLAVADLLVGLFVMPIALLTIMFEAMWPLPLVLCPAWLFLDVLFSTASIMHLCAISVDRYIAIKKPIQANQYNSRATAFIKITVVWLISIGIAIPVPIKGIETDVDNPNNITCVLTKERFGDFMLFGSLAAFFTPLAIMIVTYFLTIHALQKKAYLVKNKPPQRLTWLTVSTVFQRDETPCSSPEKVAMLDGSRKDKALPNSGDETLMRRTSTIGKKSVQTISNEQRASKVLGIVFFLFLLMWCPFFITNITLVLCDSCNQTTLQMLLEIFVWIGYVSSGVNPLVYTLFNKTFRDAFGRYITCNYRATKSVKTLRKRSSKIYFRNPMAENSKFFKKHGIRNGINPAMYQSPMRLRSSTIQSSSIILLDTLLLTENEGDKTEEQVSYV
In short: as §1

[10] = molecular target: T10, cloned human or rodent CNS receptors, channels, and transporters (PDSP panel) (Homo sapiens, UniProt P50406); conditions: 5-HT6, primary assay
T10 construct: expressed in transfected cells
T10 sequence (P50406 whole entry): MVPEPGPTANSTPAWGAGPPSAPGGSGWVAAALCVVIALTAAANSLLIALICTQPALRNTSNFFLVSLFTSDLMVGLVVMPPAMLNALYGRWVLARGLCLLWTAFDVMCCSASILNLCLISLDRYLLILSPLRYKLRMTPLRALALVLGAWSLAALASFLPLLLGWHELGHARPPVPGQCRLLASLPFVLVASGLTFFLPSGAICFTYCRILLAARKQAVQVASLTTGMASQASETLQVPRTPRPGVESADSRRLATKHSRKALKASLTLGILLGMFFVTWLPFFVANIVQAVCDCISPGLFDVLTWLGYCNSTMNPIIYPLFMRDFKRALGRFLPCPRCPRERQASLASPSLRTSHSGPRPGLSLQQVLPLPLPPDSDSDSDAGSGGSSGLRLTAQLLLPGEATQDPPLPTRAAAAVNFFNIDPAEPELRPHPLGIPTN
In short: as §1

[11] = molecular target: T11, cloned human or rodent CNS receptors, channels, and transporters (PDSP panel) (Rattus norvegicus, UniProt P16257); conditions: PBR, primary assay
T11 construct: expressed in transfected cells
In short: as §1

MDL 28170 [UNC10302675A]
Mean % ([1]; mean inhibition): -3.08%
Inhibition 1 ([1]; replicate 1): 7.51%
Inhibition 2 ([1]; replicate 2): -10.6%
Inhibition 3 ([1]; replicate 3): 0.26%
Inhibition 4 ([1]; replicate 4): -9.5%
Mean % ([2]; mean inhibition): -18.47%
Inhibition 1 ([2]; replicate 1): -14.97%
Inhibition 2 ([2]; replicate 2): -19.19%
Inhibition 3 ([2]; replicate 3): -16%
Inhibition 4 ([2]; replicate 4): -23.71%
Mean % ([3]; mean inhibition): -0.08%
Inhibition 1 ([3]; replicate 1): 13.68%
Inhibition 2 ([3]; replicate 2): 11.74%
Inhibition 3 ([3]; replicate 3): -15.62%
Inhibition 4 ([3]; replicate 4): -10.12%
Mean % ([4]; mean inhibition): 1.5% and 5.58%
Inhibition 1 ([4]; replicate 1): 1.64% and 23.85%
Inhibition 2 ([4]; replicate 2): -18.73% and 10.38%
Inhibition 3 ([4]; replicate 3): -4.59% and 3.46%
Inhibition 4 ([4]; replicate 4): 27.68% and -15.39%
Mean % ([5]; mean inhibition): -9.69%
Inhibition 1 ([5]; replicate 1): -16.2%
Inhibition 2 ([5]; replicate 2): -15.21%
Inhibition 3 ([5]; replicate 3): 9.82%
Inhibition 4 ([5]; replicate 4): -17.18%
Mean % ([6]; mean inhibition): -6.22%
Inhibition 1 ([6]; replicate 1): -3.13%
Inhibition 2 ([6]; replicate 2): -5.37%
Inhibition 3 ([6]; replicate 3): -7.3%
Inhibition 4 ([6]; replicate 4): -9.09%
Mean % ([7]; mean inhibition): -4.37%
Inhibition 1 ([7]; replicate 1): 0.36%
Inhibition 2 ([7]; replicate 2): 5.37%
Inhibition 3 ([7]; replicate 3): -17.38%
Inhibition 4 ([7]; replicate 4): -5.81%
Mean % ([8]; mean inhibition): 8.82%
Inhibition 1 ([8]; replicate 1): 3.47%
Inhibition 2 ([8]; replicate 2): 2.13%
Inhibition 3 ([8]; replicate 3): 10.86%
Inhibition 4 ([8]; replicate 4): 18.81%
Mean % ([9]; mean inhibition): -23.86%
Inhibition 1 ([9]; replicate 1): -2.15%
Inhibition 2 ([9]; replicate 2): -34.45%
Inhibition 3 ([9]; replicate 3): -28.58%
Inhibition 4 ([9]; replicate 4): -30.26%
Mean % ([10]; mean inhibition): -4.53%
Inhibition 1 ([10]; replicate 1): 18.94%
Inhibition 2 ([10]; replicate 2): -17.59%
Inhibition 3 ([10]; replicate 3): -16%
Inhibition 4 ([10]; replicate 4): -3.45%
Mean % ([11]; mean inhibition): 14.47% and 16.31%
Inhibition 1 ([11]; replicate 1): 31.01% and 31.3%
Inhibition 2 ([11]; replicate 2): 3.06% and 12.16%
Inhibition 3 ([11]; replicate 3): 7.19% and 13.84%
Inhibition 4 ([11]; replicate 4): 16.6% and 7.94%
